Where a SMILES comes first, the peptide text is derived from it. Bridges are numbered along the chain shown (N, C = ends). [ ]: non-standard residue; d: D form. Dap = NC[C@H](N)C(=O)O
Key:
[1] = molecular target: T1, Substance-K receptor (Mesocricetus auratus) (UniProt P51144); experiment: Inhibition by the compound against [125I]NKA binding to neurokinin-2 (NK-2) receptor in hamster urinary bladder at 10 uM concentration
T1 sequence (whole entry): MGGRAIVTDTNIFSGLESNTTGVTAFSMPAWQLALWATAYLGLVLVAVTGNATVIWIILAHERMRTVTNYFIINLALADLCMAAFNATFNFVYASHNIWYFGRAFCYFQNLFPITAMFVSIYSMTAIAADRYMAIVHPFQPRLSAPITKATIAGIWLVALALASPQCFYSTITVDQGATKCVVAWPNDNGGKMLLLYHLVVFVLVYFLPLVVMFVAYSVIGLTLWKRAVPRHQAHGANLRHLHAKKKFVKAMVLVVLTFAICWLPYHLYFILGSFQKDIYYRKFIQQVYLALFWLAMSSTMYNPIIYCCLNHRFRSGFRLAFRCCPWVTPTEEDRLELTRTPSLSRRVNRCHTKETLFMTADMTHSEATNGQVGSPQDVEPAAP

[2] = molecular target: T2, Neuromedin-K receptor (Homo sapiens) (UniProt P29371); experiment: Inhibition by the compound against [125I]-[MePhe]-NKB binding to human Tachykinin receptor 3 in stably expressed CHO cells at 10 uM concentration; type: cell-based
T2 sequence (whole entry): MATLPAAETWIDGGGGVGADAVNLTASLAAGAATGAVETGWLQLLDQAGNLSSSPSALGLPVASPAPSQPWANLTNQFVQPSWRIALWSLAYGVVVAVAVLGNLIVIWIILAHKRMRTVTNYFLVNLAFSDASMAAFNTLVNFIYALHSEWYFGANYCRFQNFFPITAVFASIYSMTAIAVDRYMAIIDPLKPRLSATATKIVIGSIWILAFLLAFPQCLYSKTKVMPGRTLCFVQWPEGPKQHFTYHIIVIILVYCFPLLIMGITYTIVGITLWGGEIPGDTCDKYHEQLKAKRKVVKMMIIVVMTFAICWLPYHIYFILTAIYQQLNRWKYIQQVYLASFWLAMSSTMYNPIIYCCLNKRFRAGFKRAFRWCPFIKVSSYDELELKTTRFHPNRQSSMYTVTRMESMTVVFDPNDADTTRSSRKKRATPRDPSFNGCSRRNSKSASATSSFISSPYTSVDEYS

Substance-P receptor [3] = molecular target: T3, Substance-P receptor (Homo sapiens, UniProt P25103); experiment: Tested for binding affinity against [125I]BH-SP binding to neurokinin-1 (NK-1) receptor in human IM-9 cells; type: cell-based
Substance-K receptor = molecular target: T4, Substance-K receptor (Mesocricetus auratus, UniProt P51144); experiment: Tested for binding affinity of compound against [125I]NKA binding to neurokinin-2 (NK-2) receptor in hamster urinary bladder
T4 sequence (P51144 whole entry): T1 sequence (whole entry)

Neuromedin-K receptor [4] = molecular target: T5, Neuromedin-K receptor (Homo sapiens, UniProt P29371); experiment: Tested for binding affinity of compound against [125I][MePhe]-NKB binding to human Tachykinin receptor 3 in stably expressed CHO cells; Inactive; type: cell-based
T5 sequence (P29371 whole entry): T2 sequence (whole entry)

Substance-P receptor [5] = molecular target: T3, Substance-P receptor; experiment: Inhibition by the compound against [125I]BH-SP radioligand binding to neurokinin-1 (NK-1) receptor in human IM-9 cells at 10 uM concentration; type: cell-based
Neuromedin-K receptor [6] = molecular target: T5, Neuromedin-K receptor; experiment: Tested for binding affinity of compound against [125I][MePhe]-NKB binding to Tachykinin receptor 3 in stably expressed CHO cells; type: cell-based

T3 sequence (P25103 whole entry): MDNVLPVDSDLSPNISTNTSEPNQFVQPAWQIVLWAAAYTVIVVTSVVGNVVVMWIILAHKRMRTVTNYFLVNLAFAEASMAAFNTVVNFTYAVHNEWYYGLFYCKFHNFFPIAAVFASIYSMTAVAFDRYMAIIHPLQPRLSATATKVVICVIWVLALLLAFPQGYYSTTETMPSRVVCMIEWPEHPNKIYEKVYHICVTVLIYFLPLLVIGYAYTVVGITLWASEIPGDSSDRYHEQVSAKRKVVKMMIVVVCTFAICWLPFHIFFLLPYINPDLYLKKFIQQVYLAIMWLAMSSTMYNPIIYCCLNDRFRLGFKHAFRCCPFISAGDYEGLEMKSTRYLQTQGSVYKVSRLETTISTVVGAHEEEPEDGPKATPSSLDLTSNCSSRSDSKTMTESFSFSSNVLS

Compound	inhibition [1]	inhibition [2]	IC50 (Substance-P receptor [3])	IC50 (Substance-K receptor)	IC50 (Neuromedin-K receptor [4])	inhibition (Substance-P receptor [5])	IC50 (Neuromedin-K receptor [6])
O=C(NCc1c[nH]c2ccccc12)N1C2CCC(C2)C1Cc1ccccc1 (stereo unspecified)	31%	35%	6.7 µM				
CSCC[C@@H]1NC(=O)[C@H](CC(C)C)NC(=O)[C@@H]2CNC(=O)C[C@H](NC1=O)C(=O)N[C@@H](Cc1c[nH]c3ccccc13)C(=O)N[C@@H](Cc1ccccc1)C(=O)N2 (cyclo(DWF[Dap]LM); lactam 1-4)			0.8 µM	0.079 nM	Not Active		
O=C(Cc1c[nH]c2ccccc12)N1CCC(Cc2ccccc2)C1 (stereo unspecified)	14%		3.7 µM				
O=C(NCc1cn(C(=O)OCc2ccccc2)c2ccccc12)N1C2CCC(C2)C1Cc1ccccc1 (stereo unspecified)	18%					55%	10 µM
